In patent US8258140B2 (Astrazeneca AB, priority 2009, dated 2012):

These molecules were tested against T1, Androgen Receptor (AR) in the LNCaP prostate carcinoma cell line (Homo sapiens, UniProt P10275, T878A) (assay: LNCaP Androgen Receptor Down-Regulation Cell Assay (immunofluorescence end point)). Conditions: LNCaP cells, compound incubation 20-22 hours, concentration giving 50% reduction of the AR signal.
T1 construct: cell based immuno-fluorescence assay using the LNCaP prostate epithelial cell line; host or cells: LNCaP clone FGC
T1 sequence (P10275 1-920 T878A): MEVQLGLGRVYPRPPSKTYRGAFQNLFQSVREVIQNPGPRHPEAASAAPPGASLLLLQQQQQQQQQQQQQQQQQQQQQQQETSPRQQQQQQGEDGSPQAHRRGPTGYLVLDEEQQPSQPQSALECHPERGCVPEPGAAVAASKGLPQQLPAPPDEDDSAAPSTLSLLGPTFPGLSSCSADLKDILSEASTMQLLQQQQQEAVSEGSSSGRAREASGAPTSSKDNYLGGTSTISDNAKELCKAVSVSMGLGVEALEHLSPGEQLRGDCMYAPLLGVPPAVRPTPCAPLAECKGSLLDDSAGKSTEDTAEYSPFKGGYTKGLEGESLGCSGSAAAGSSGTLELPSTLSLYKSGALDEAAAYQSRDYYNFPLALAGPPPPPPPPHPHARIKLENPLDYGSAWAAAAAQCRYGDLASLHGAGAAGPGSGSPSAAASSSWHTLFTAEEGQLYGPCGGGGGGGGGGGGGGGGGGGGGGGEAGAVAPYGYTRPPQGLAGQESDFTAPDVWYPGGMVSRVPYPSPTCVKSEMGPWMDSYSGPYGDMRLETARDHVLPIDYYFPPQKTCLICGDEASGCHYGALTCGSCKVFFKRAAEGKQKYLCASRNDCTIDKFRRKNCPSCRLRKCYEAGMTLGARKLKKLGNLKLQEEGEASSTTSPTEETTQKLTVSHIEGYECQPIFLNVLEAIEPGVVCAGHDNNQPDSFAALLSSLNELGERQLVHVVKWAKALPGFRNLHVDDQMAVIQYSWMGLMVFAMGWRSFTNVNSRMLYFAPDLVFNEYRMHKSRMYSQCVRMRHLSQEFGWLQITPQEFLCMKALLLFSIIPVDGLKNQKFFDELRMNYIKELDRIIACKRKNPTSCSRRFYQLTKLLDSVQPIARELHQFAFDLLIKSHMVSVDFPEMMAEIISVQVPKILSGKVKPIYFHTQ
Assay type: cell-based
Protocol: The ability of compounds to reduce Androgen Receptor (AR) numbers was assessed in a cell based immuno-fluorescence assay using the LNCaP prostate epithelial cell line.
This immunofluorescence end point assay measures the ability of a test compound to down-regulate and reduce measured levels of the AR in the LNCaP prostate carcinoma cell line (LNCaP clone FGC (CRL-1740) obtained from the American Type Culture Collection (ATCC)).
LNCaP cells were cultured in Growth Medium (phenol red free Roswell Park Memorial Institute (RPMI) 1640 (Invitrogen Code no. 11835-063) containing 2 mM L-Glutamine (Invitrogen Code no. 25030-024) and 1% (v/v) Penicillin/Streptomycin (10000 units/ml Penicillin and 10000 μg/ml of Streptomycin utilising penicillin G (sodium salt) and streptomycin sulphate: prepared in normal saline, Invitrogen Code no. 15140122) and 10% (v/v) foetal bovine serum (FBS)) in a 5% CO2 air incubator at 37° C. Cells for assay were harvested from T175 stock flasks by washing once in PBS (phosphate buffered saline, pH 7.4) (Invitrogen Code no. 14190-094) and harvested using 5 mls of 1× Trypsin/ethylaminediaminetetraacetic acid (EDTA) (10× Trypsin-EDTA, 5.0 g/L Trypsin, 2.0 g/L of EDTA.4Na and 8.5 g/L of NaCl, without Phenol Red, Invitrogen Code no. 15400-054) diluted in PBS solution. A 5 ml volume of Growth Medium was added to each flask (as above except that 5% (v/v) charcoal stripped FBS (HyClone Code no. SH30068.03) was included instead of 10% (v/v) FBS). Cells were syringed at least twice using a sterile 18 G×1.5″ (1.2×40 mm) broad gauge needle and cell density was measured using a haemocytometer. Cells were further diluted in Growth Medium plus 5% (v/v) charcoal stripped FBS and seeded at a density of 6.5×10^3 cells per well (in 90 ul) into transparent, black, tissue culture treated 96 well plates (Packard, No. 6005182).
Test data reported herein was generated using two different compounds preparation and dosing methods. In method (1) a 10 mM compound stock solution in 100% (v/v) DMSO was serially diluted in 4-fold steps in 100% (v/v) DMSO using a Thermo Scientific Matrix SerialMate. The diluted compounds were then further diluted 1 in 30 in assay media using a Thermo Scientific Matrix PlateMate and a 10 μl aliquot of this dilution was dosed to cells manually using a multi-channel pipette. In method (2) starting with a 10 mM compound stock solution, the Labcyte Echo 550 was used to generate a compound concentration response set diluted in 30 μl of assay media. The Echo 550 is a liquid handler that uses acoustic technology to perform direct microplate-to-microplate transfers of DMSO compound solutions. The system can be programmed to transfer volumes as low as 2.5 nL in multiple increments between microplates and in so doing generates a serial dilution of compound which is then back-filled to normalise the DMSO concentration across the dilution range. A 10 μl volume of diluted compound is then dosed to cells using a Thermo Scientific Matrix PlateMate.
Plates were incubated overnight at 37° C., 5% CO2. Wells were then dosed with compound prepared by one of the 2 methods above and further incubated for 20-22 hours at 37° C., 5% CO2. Plates were fixed by the addition of 20 μl of 10% (v/v) formaldehyde solution (in PBS) to each well (final formaldehyde conc.=1.67% (v/v)) and left at room temperature for 10 mins. This fixative solution was removed and cells were washed with 250 μl of PBS/0.05% (v/v) Tween 20 (PBST) using an automated plate washer. This process was then repeated twice more.
Immunostaining was performed at room temperature. Cells were permeabilised by the addition of 35 μl of PBS containing 0.5% Tween 20 and incubated for 1 hour at room temperature. Permeabilisation solution was removed and cells were washed with 250 μl of PBST using an automated plate washer. This process was then repeated twice more. […]

IC50 | Molecule
0.14 µM | CC(=O)N1CCN([C@@H](C)COc2ccc(C3CCN(C4=Nn5c(nnc5C(F)(F)F)CC4)CC3)cc2)CC1 (single isomer, unassigned) [Example 54]
0.045 µM | C[C@@H]1C(=O)N(C)CCN1CCOc1ccc(C2CCN(C3=Nn4c(nnc4C(F)(F)F)CC3)CC2)cc1 [Example 49, (3R)-1,3-dimethyl-4-[2-(4-{1-[3-(trifluoromethyl)-7,8-dihydro[1,2,4]triazolo[4,3-b]pyridazin-6-yl]piperidin-4-yl}phenoxy)ethyl]piperazin-2-one]
0.7 µM | CC(=O)N1CCCN(CCOc2ccc(C3CCN(C4=Nn5c(nnc5C(F)(F)F)CC4)CC3)cc2)CC1 [Example 48, 6-(4-{4-[2-(4-acetyl-1,4-diazepan-1-yl)ethoxy]phenyl}piperidin-1-yl)-3-(trifluoromethyl)-7,8-dihydro[1,2,4]triazolo[4,3-b]pyridazine]
4.1 µM | CN(C)C(=O)COc1ccc(C2CCN(C3=Nn4c(nnc4C(F)(F)F)CC3)CC2)cc1 [Example 20, N,N-dimethyl-2-(4-{1-[3-(trifluoromethyl)-7,8-dihydro[1,2,4]triazolo[4,3-b]pyridazin-6-yl]piperidin-4-yl}phenoxy)acetamide]
18 µM | CS(=O)(=O)N1CCN(CCCOc2ccc(N3CCN(C4=Nn5c(nnc5C(F)(F)F)CC4)CC3)cc2)CC1 [Example 31]
0.93 µM | CCCCC(=O)N1CCN(CCOc2ccc(C3CCN(C4=Nn5c(nnc5C(F)(F)F)CC4)CC3)cc2)CC1 [Example 25, 6-(4-{4-[2-(4-pentanoylpiperazin-1-yl)ethoxy]phenyl}piperidin-1-yl)-3-(trifluoromethyl)-7,8-dihydro[1,2,4]triazolo[4,3-b]pyridazine]
0.55 µM | FC(F)(F)c1ccn(CCOc2ccc(C3CCN(C4=Nn5c(nnc5C(F)(F)F)CC4)CC3)cc2)n1 [Example 44, 3-(trifluoromethyl)-6-[4-(4-{2-[3-(trifluoromethyl)-1H-pyrazol-1-yl]ethoxy}phenyl)piperidin-1-yl]-7,8-dihydro[1,2,4]triazolo[4,3-b]pyridazine]
0.94 µM | Cn1nccc1CCOc1ccc(C2CCN(C3=Nn4c(nnc4C(F)(F)F)CC3)CC2)cc1 [Example 15, 6-[4-[4-[2-(1-methyl-1H-pyrazol-5-yl)ethoxy]phenyl]piperidin-1-yl]-3-(trifluoromethyl)-7,8-dihydro[1,2,4]triazolo[4,3-b]pyridazine]
3.2 µM | FC(F)(F)c1nnc2n1N=C(N1CCC(c3c[nH]c4ncccc34)CC1)CC2 [Example 18, 6-[4-(1H-pyrrolo[2,3-b]pyridin-3-yl)piperidin-1-yl]-3-(trifluoromethyl)-7,8-dihydro[1,2,4]triazolo[4,3-b]pyridazine]
7.8 µM | CCCCC(=O)N1CCN(CCOc2ccc(N3CCN(C4=Nn5c(nnc5C(F)(F)F)CC4)CC3)cc2)CC1 [Example 33, 6-(4-{4-[2-(4-pentanoylpiperazin-1-yl)ethoxy]phenyl}piperazin-1-yl)-3-(trifluoromethyl)-7,8-dihydro[1,2,4]triazolo[4,3-b]pyridazine]
1.2 µM | FC(F)(F)c1nnc2n1N=C(N1CCC(c3c[nH]c4ccccc34)CC1)CC2 [Example 3, 6-[4-(1H-indol-3-yl)piperidin-1-yl]-3-(trifluoromethyl)-7,8-dihydro[1,2,4]triazolo[4,3-b]pyridazine]
6.7 µM | CCCCC(=O)N1CCN(CCCOc2ccc(N3CCN(C4=Nn5c(nnc5C(F)(F)F)CC4)CC3)cc2)CC1 [Example 30, 6-(4-{4-[3-(4-pentanoylpiperazin-1-yl)propoxy]phenyl}piperazin-1-yl)-3-(trifluoromethyl)-7,8-dihydro[1,2,4]triazolo[4,3-b]pyridazine]
2.7 µM | FC(F)(F)c1cccc(CN2CCN(C3=Nn4c(nnc4C(F)(F)F)CC3)CC2)c1 [Example 8, 3-(trifluoromethyl)-6-{4-[3-(trifluoromethyl)benzyl]piperazin-1-yl}-7,8-dihydro[1,2,4]triazolo[4,3-b]pyridazine]
0.67 µM | CCCCC(=O)N1CCN(CCCOc2ccc(C3CCN(C4=Nn5c(nnc5C(F)(F)F)CC4)CC3)cc2)CC1 [Example 27, 6-(4-{4-[3-(4-pentanoylpiperazin-1-yl)propoxy]phenyl}piperidin-1-yl)-3-(trifluoromethyl)-7,8-dihydro[1,2,4]triazolo[4,3-b]pyridazine]
2.5 µM | CN(CCO)C(=O)CCCOc1ccc(C2CCN(C3=Nn4c(nnc4C(F)(F)F)CC3)CC2)cc1 [Example 24]
> 15 µM | OC1(c2ccc(F)cc2)CCN(C2=Nn3c(nnc3C(F)(F)F)CC2)CC1 [Example 14, 4-(4-fluorophenyl)-1-[3-(trifluoromethyl)-7,8-dihydro[1,2,4]triazolo[4,3-b]pyridazin-6-yl]piperidin-4-ol]
3.4 µM | Fc1ccc2[nH]cc(CN3CCN(C4=Nn5c(nnc5C(F)(F)F)CC4)CC3)c2c1 [Example 12, 6-{4-[(5-fluoro-1H-indol-3-yl)methyl]piperazin-1-yl}-3-(trifluoromethyl)-7,8-dihydro[1,2,4]triazolo[4,3-b]pyridazine]
2.9 µM | FC(F)(F)c1nnc2n1N=C(N1CCN(Cc3cccc(Cl)c3)CC1)CC2 [Example 7, 6-[4-(3-chlorobenzyl)piperazin-1-yl]-3-(trifluoromethyl)-7,8-dihydro[1,2,4]triazolo[4,3-b]pyridazine]
8.6 µM | FC(F)(F)c1nnc2n1N=C(N1CCN(Cc3c[nH]c4ccccc34)CC1)CC2 [Example 11, 6-[4-(1H-indol-3-ylmethyl)piperazin-1-yl]-3-(trifluoromethyl)-7,8-dihydro[1,2,4]triazolo[4,3-b]pyridazine]

Molecule | IC50
6-(4-{4-[2-(1H-imidazol-1-yl)ethoxy]phenyl}piperidin-1-yl)-3-(trifluoromethyl)-7,8-dihydro[1,2,4]triazolo[4,3-b]pyridazine [Example 41] | 2.9 µM
FC(F)(F)CCCOc1ccc(C2CCN(C3=Nn4c(nnc4C(F)(F)F)CC3)CC2)cc1 [Example 35, 6-{4-[4-(4,4,4-trifluorobutoxy)phenyl]piperidin-1-yl}-3-(trifluoromethyl)-7,8-dihydro[1,2,4]triazolo[4,3-b]pyridazine] | 2.3 µM
